According to patent publication US6436915B1, “Pyrazole compounds” (Kinetek Pharmaceuticals, Inc., priority 2000, dated 2002):

Legend:
integrin linked kinase = target: T1, integrin linked kinase (Homo sapiens, UniProt Q13418); test: In vitro kinase inhibition assay, integrin linked kinase (radioactive phosphate incorporation, scintillation counting); assay type: biochemical; conditions: full-length recombinant ILK expressed in insect cells; substrate CKRRRLASLR-amide; 15 min at room temperature
T1 construct: The target integrin linked kinase is a full-length recombinant protein expressed in sF9 insect cells by baculovirus infection; GST (N); made in house; host or cells: Baculovirus; virus made in Sf9 cells, litre-scale expression in Hi5 insect cells
T1 sequence (Q13418 1-452): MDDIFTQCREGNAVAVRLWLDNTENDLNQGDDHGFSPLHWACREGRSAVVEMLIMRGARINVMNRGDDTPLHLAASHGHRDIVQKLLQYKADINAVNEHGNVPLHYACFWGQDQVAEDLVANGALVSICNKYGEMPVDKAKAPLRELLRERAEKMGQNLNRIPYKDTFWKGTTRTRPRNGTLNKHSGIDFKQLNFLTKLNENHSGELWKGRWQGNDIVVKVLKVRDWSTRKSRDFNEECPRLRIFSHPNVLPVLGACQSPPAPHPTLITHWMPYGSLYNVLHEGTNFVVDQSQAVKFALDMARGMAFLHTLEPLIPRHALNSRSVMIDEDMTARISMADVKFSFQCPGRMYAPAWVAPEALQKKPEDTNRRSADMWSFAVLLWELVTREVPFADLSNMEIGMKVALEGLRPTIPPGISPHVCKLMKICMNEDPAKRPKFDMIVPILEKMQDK
Description: Compounds were screened using a series of disease related kinase targets, such as integrin linked kinase-1. Synthesized libraries of compounds are tested against each of the targets to find compounds that inhibit one of the targets preferentially. The desired in vitro potency of the inhibitor is such that the compound is useful as a therapeutic agent, i.e. in the nanomolar or micromolar range.
Inhibition of the targets is measured by scintillation counting; the incorporation of radioactive phosphate onto a specific substrate which is immobilized onto a filter paper at the end of the assay. To provide meaningful measurements of inhibition, the assays are performed both in the absence and presence of specific and known inhibitors, and the amount of incorporated radioactivity is compared to provide a baseline measurement.
The baseline activity is the amount of radioactivity incorporated in the absence of inhibitor. The amount of radioactivity incorporated in the presence of an inhibitor is called the ‘sample activity’, and the % inhibition is expressed by the following formula:
% inhibition=100−sample activity/baseline activity*100)
and is usually expressed in conjunction with the compound concentration. By using a range of inhibitor concentrations, the IC50 of an inhibitor is estimated (i.e. the concentration at which enzymatic activity is reduced by 50%).
Inhibition Assay: Compounds listed in Table 1 were lyophilized and stored at −20° C. Stock solutions were made by weighing out the compounds and dissolving them in dimethyl sulfoxide (DMSO) to a standard concentration, usually 20 mM, and stored at −20° C. The compounds were diluted to a starting intermediate concentration of 250 μM in 1% DMSO, then serially diluted across a row of a 96 well plate using serial 2 fold dilution steps. Diluted 100% DMSO was used as a negative control. 5 μl of each compound dilution were robotically pipetted to Costar serocluster plates maintaining the same plate format. All assays consisted of the following volumes:
and were then incubated 15 min at room temperature.
From each reaction, 10 μl of reaction mix was spotted onto Millipore Multiscreen-PH opaque plates and washed 2×10 min in 1% phosphoric acid. The plates were dried for at 40° C. for 30 min, then the substrate phosphate complexes were quantitated by scintillation counting. These Millipore plates are in a 96 well format with immobilized P81 phosphocellulose membranes. Both the phosphorylated and non-phosphorylated form of the substrate bind to the membrane while ATP (unincorporated phosphate) is removed in the subsequent wash steps.
Integrin Linked Kinase: The target integrin linked kinase is a full-length recombinant protein expressed in sF9 insect cells by baculovirus infection. The ILK1 substrate is CKRRRLASLR-amide.
Recombinant ILK protein was expressed using cultured insect cells and a baculovirus expression system. Standard techniques for DNA manipulation were used to produce recombinant DNA molecules and baculoviruses (Sambrook. J., Fritsch, E. F. and Maniatis, T. 1989. Molecular cloning, a laboratory manual. Second edition. Cold Spring Harbor Laboratory Press. NY; Crossen, R. and Gruenwald, S. 1998. Baculovirus expression Vector System Manual. 5th Edition. Pharmingen, San Diego, Calif.) but the isolation of active ILK required some ingenuity.
The ILK open reading frame (Hannigan et al., supra.), excluding the 5′ and 3′ untranslated regions, was inserted into the baculovirus transfer vector pAcG2T (Pharmingen) to produce a GST fusion protein under the control of the strong AcNPV polyhedrin promoter. A large scale plasmid preparation of the resulting transfer construct was made using a Qiagen Plasmid Midi Kit. This ILK transfer construct was then co-transfected with BaculoGold DNA (Pharmingen) into Sf9 insect cells (Invitrogen) and a high titre preparation of GST-ILK recombinant baculovirus was produced by amplification in Sf9 cells. […]

[1] = system: Lewis Lung Carcinoma cells; test: Anti-tumor activity in a murine model using Lewis Lung Carcinoma cells (FIG. 1); assay type: in vivo; conditions: FIG. 1 legend only

SMILES	IC50 (integrin linked kinase) [µM]	anti-tumor activity [1]
COc1ccc(N/N=C2/C(=N)NN=C2N)cc1 [KP-15792, 3,5-diamino-4-(p-methoxyphenyl)hydrazonopyrazole]	1	anti-tumor activity
N=C1NN=C(N)/C1=N/Nc1ccccc1 [KP-23194, 3,5-diamino-4-phenylhydrazonopyrazole]	0.6	–
Cc1ccc(NN=C2C(N)=NN=C2N)cc1 [KP-23195, 3,5-diamino-4-(p-methylphenyl)hydrazonopyrazole]	5.3	–
COc1ccc(NN=C2C(N)=NN=C2N)cc1O [KP-23197, 3,5-diamino-4-(3-hydroxy-4-methoxyphenyl)hydrazonopyrazole]	4	–
NC1=NNC(=O)C1/N=N/c1ccccc1 (stereo not shown) [KP-23198, 3-amino-4-phenylazo-2-pyrazolin-5-one]	17.1	–
Cc1ccc(/N=N/C2C(=O)NN=C2N)cc1 (stereo not shown) [KP-23199, 3-amino-4-(p-methylphenylazo)-2-pyrazolin-5-one]	> 20	–
COc1ccc(/N=N/C2C(=O)NN=C2N)cc1 (stereo not shown) [KP-23200, 3-amino-4-(p-methoxyphenylazo)-2-pyrazolin-5-one]	> 20	–
COc1ccc(/N=N/C2C(=O)NN=C2N)cc1O (stereo not shown) [KP-23201, 3-amino-4-(3-hydroxy-4-methyoxyphenylazo)-2-pyrazolin-5-one]	18	–
O=C1NNC(=O)C1=NNc1ccccc1 [KP-23202, 4-phenylhydrazonopyrazolin-3,5-dione]	> 20	–
Cc1ccc(NN=C2C(=O)NNC2=O)cc1 [KP-23203, 4-(p-methylphenyl)hydrazonopyrazolin-3,5-dione]	> 20	–
COc1ccc(NN=C2C(=O)NNC2=O)cc1 [KP-23204, 4-(p-methoxyphenyl)hydrazonopyrazolin-3,5-dione]	> 20	–
COc1ccc(NN=C2C(=O)NNC2=O)cc1O [KP-23205, 4-(3-hydroxy-4-methyoxyphenyl)hydrazonopyrazolin-3,5-dione]	> 20	–
NC1=NN=C(N)C1=NNc1ccc(S(=O)(=O)O)cc1 [KP-27288, 4-[N′-(3,5-diaminopyrazole-4-ylidene)hydrazino]benzenesulfonic acid]	> 20	–
NC1=NN=C(N)C1=NNN1CCOCC1 [KP-27289, 3,5-diamino-4-morpholinylhydrazonopyrazole]	9.6	–
NC1=NN=C(N)C1=NNCCN1CCOCC1 [KP-27290, 3,5-diamino-4-(2-morpholinylethyl)hydrazonopyrazole]	8.2	–
NC1=NN=C(N)C1=NNc1ncc[nH]1 [KP-27291, 3,5-diamino-4-(2-imidazolyl)hydrazonopyrazole]	28	–
NC1=NN=C(N)C1=NNc1cc[nH]n1 [KP-27292, 3,5-diamino-4-(3-pyrazolyl)hydrazonopyrazole]	8	–
NC1=NN=C(N)C1=NNc1nccs1 [KP-27293, 3,5-diamino-4-(2-thiazolyl)hydrazonopyrazole]	0.9	–
NC1=NN=C(N)C1=NNc1cccc2ccccc12 [KP-27294, 3,5-diamino-4-(1-naphthyl)hydrazonopyrazole]	0.6	–
NC1=NN=C(N)C1=NNc1ccc(S(=O)(=O)O)c2ccccc12 [KP-27295, 4-[N′-(3,5-Diaminopyrazol-4-ylidene)hydrazino]naphthalene-1-sulfonic acid]	19.3	–
NC1=NN=C(N)C1=NNCC1CCNCC1 [KP-27386, 3,5-diamino-4-(4-piperidinylmethyl)hydrazonopyrazole]	13	–
NC1=NN=C(N)C1=NNc1nccnn1 [KP-27387, 3,5-diamino-4-(3-[1,2,4]triazinyl)hydrazonopyrazole]	> 20	–
NC1=NN=C(N)C1=NNc1ccc(C(=O)O)cc1 [KP-27388, 4-[N′-(3,5-diaminopyrazol-4-ylidene)hydrazino]benzoic acid]	13	–
NC1=NN=C(N)C1=NNc1ccc(O)cc1 [KP-27389, 3,5-diamino-4-(p-hydroxyphenyl)hydrazonopyrazole]	> 20	–
NC1=NN=C(N)C1=NNc1ccc(Cl)cc1 [KP-27390, 3,5-diamino-4-(p-chlorophenyl)hydrazonopyrazole]	1.2	–
CC(=O)Nc1ccc(NN=C2C(N)=NN=C2N)cc1 [KP-27392, 3,5-diamino-4-(p-acetoaminophenyl)hydrazonopyrazole]	5	–
NC1=NN=C(N)C1=NNc1c(O)ccc2ccccc12 [KP-27393, 3,5-diamino-4-(2-hydroxynaphthyl)hydrazonopyrazole]	3	–
